Laboratory results taken from article PMC8667942 (Journal of Enzyme Inhibition and Medicinal Chemistry, 2021).

Key:
Assay in all cases: Direct CYP inhibition assay, pooled human liver microsomes, LC-MS/MS
Assay type in all cases: in vitro ADME
[1] = target: T1, CYP2B6 (Homo sapiens, UniProt P20813); conditions: pooled HLMs, up to 50 μM, bupropion substrate
T1 construct: from tissue; host or cells: pooled human liver microsomes
T1 sequence (P20813 1-491): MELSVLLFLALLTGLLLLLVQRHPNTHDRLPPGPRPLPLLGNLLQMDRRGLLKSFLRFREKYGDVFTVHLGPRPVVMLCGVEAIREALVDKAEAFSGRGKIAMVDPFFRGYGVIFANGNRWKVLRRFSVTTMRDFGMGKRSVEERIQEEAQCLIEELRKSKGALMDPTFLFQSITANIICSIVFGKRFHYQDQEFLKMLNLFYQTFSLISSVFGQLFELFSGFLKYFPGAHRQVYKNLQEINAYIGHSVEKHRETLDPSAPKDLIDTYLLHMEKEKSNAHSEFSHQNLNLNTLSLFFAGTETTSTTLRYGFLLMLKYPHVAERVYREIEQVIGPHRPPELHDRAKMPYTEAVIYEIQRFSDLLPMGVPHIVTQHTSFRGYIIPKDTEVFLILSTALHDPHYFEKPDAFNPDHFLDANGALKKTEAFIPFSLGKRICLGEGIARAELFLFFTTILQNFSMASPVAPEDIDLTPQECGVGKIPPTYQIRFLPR
Description: (§1) Reactions were incubated in eight-well strips placed in an 8 × 12 racks (1.2 ml; VWR, Emeryville, CA). The incubation mixtures (final volume, 200 μL) contained 0.2 mg/mL HLMs, 0.1 M phosphate buffer (pH 7.4), 1 mM NADPH, and various CYP isoform-specific substrate cocktail sets (A set: phenacetin, coumarin, amodiaquine, S-mephenytoin, dextromethorphan, and midazolam; B set: bupropion, tolbutamide, chlorzoxazone, and testosterone). […] Substrates were dissolved and serially diluted with acetonitrile to the required concentration in all experiments. […] The reactions were incubated at 37 °C in a shaking water bath. The reactions were terminated by placing the incubation tubes on ice, adding 200 μL of cold acetonitrile containing carbamazepine (100 nM) and 4-methylumbelliferone (500 nM) as an internal standard after 10 min, and agitating with a vortex mixer before centrifugation. The samples for each enzyme assay were centrifuged at 3,000 × g for 20 min at 4 °C, and supernatants of the individual reaction samples and pooled cocktail incubation samples (A set: B set, 1:1) were analysed using LC-MS/MS.
(§2) Sample injection volume was 10 μL, and separation was performed on an Atlantis™ dC18 column (2.1 × 50 mm i.d., 3 μm; Waters, Milford, MA, USA) and Luna™5u C18 column (2.0 × 30 mm i.d.; Phenomenex, Torrance, CA, USA) with a SecurityGuard™ C18 guard column (2.0 × 4.0 mm i.d.; Phenomenex, Torrance, CA, USA) maintained at 30 °C. The column was pre-equilibrated in 100% v/v solvent A (deionized water containing 0.1% v/v formic acid)/0% v/v solvent B (acetonitrile containing 0.1% v/v formic acid) at a flow rate of 0.4 ml/min. […] Quadrupoles Q1 and Q3 were set on unit resolution. The samples were analysed via multiple reaction monitoring (MRM) and enhanced product ion (EPI) scan mode. The turbo ion spray interface was operated in the positive ion mode at 5,500 V. The operating conditions were determined as follows: ion source temperature, 600 °C; nebulising gas flow, 50 L/min; auxiliary gas flow, 4.0 L/min; curtain gas flow, 20 L/min; collision gas (nitrogen) pressure 3.6 × 10^−5 Torr. Nitrogen gas was used for CUR, CAD, and NEB. The MRM transitions, collision energies and retention time were determined for each metabolite. The samples were analysed via MRM as described in our previous study. The scan dwell time was set at 0.08 s for every channel. Data acquisition and analysis was performed using the Analyst™ software (version 1.5.2; Applied Biosystems, Foster City, CA, USA).

[2] = target: T2, CYP2D6 (Homo sapiens, UniProt P10635); conditions: pooled HLMs, up to 50 μM, dextromethorphan substrate
T2 construct: from tissue; host or cells: pooled human liver microsomes
T2 sequence (P10635 whole entry): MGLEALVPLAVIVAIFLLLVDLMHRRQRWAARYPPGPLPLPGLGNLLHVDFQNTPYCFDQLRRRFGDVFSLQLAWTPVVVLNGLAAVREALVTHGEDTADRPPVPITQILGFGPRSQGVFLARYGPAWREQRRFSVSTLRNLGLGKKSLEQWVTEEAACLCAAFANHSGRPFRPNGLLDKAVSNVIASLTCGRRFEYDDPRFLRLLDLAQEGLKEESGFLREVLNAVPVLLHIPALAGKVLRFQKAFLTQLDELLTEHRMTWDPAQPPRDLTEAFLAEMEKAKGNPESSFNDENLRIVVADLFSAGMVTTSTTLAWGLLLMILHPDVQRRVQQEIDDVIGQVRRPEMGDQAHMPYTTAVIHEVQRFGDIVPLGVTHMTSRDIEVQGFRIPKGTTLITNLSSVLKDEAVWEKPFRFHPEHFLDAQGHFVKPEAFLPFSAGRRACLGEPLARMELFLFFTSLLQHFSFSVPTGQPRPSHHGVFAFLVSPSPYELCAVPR
Description: as §1, §2

[3] = target: T3, CYP2C8 (Homo sapiens, UniProt P10632); conditions: pooled HLMs, up to 50 μM, amodiaquine substrate
T3 construct: from tissue; host or cells: pooled human liver microsomes
T3 sequence (P10632 1-490): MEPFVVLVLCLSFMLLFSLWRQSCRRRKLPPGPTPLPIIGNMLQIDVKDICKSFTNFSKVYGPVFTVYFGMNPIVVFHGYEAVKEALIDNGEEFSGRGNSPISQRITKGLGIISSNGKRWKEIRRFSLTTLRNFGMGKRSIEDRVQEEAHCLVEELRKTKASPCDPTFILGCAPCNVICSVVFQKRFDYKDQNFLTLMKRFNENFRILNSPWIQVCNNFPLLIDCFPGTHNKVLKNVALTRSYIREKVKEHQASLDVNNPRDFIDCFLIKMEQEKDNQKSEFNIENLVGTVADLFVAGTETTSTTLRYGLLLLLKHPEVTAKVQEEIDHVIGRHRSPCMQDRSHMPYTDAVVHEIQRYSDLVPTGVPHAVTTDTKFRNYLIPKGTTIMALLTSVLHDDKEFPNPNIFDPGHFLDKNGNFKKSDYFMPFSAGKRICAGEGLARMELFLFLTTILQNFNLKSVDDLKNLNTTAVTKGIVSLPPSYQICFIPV
Description: as §1, §2

[4] = target: T4, CYP2C19 (Homo sapiens, UniProt P33261); conditions: pooled HLMs, up to 50 μM, S-mephenytoin substrate
T4 construct: from tissue; host or cells: pooled human liver microsomes
T4 sequence (P33261 whole entry): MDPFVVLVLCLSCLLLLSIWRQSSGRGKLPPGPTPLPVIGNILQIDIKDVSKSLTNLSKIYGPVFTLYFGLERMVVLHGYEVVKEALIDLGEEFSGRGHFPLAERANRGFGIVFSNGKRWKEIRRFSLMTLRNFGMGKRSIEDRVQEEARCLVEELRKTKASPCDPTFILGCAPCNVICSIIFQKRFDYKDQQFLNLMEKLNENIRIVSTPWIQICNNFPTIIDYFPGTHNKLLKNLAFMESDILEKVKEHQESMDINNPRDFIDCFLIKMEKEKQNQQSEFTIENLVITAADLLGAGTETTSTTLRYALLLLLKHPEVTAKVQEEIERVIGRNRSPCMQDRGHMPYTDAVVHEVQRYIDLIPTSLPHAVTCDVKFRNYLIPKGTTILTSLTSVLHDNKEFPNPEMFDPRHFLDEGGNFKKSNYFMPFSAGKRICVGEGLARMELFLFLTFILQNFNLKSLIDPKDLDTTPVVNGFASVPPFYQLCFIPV
Description: as §1, §2

[5] = target: T5, CYP2E1 (Homo sapiens, UniProt P05181); conditions: pooled HLMs, up to 50 μM, chlorzoxazone substrate
T5 construct: from tissue; host or cells: pooled human liver microsomes
T5 sequence (P05181 whole entry): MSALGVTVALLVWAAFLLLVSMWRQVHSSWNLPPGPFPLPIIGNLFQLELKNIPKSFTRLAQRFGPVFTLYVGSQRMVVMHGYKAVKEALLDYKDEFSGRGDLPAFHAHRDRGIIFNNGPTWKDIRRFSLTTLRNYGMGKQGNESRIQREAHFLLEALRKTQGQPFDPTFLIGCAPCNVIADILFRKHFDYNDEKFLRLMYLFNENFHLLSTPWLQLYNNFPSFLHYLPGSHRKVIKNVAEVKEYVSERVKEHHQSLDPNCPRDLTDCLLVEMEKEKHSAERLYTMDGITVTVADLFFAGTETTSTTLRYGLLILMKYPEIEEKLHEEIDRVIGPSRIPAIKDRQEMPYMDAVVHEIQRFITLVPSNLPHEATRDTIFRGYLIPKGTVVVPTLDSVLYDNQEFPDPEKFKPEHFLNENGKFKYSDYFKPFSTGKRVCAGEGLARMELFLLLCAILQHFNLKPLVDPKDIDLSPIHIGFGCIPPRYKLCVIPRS
Description: as §1, §2

[6] = target: T6, CYP1A2 (Homo sapiens, UniProt P05177); conditions: pooled HLMs, up to 50 μM, phenacetin substrate
T6 construct: from tissue; host or cells: pooled human liver microsomes
T6 sequence (P05177 1-516): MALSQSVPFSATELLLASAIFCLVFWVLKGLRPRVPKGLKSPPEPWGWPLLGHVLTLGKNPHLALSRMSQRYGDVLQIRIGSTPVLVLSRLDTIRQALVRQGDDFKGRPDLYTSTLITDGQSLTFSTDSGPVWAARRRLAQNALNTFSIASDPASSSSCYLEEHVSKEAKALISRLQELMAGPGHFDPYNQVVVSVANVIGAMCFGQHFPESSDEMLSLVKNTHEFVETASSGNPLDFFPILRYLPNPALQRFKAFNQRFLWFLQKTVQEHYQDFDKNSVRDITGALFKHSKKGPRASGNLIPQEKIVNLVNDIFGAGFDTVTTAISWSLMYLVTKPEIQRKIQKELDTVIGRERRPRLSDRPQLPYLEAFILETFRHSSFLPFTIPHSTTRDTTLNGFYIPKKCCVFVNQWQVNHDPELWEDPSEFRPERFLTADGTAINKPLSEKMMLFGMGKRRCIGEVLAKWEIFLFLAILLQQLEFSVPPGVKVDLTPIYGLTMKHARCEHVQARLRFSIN
Description: as §1, §2

O=[N+]([O-])c1ccc(CNc2nc(NCc3cccc(C(F)(F)F)c3)nc3[nH]cnc23)cc1 [TNP, N^6-[(4-nitrophenyl)methyl]-N^2-[[3-(trifluoromethyl)phenyl]methyl]-9H-purine-2,6-diamine]
no inhibitory effect: inhibitory effect on CYP2B6 [1] | inhibitory effect on CYP2D6 [2] | inhibitory effect on CYP2C8 [3] | inhibitory effect on CYP2C19 [4] | inhibitory effect on CYP2E1 [5] | inhibitory effect on CYP1A2 [6]
